Results published in EP2558096B1, “COMBINATION OF HYPOXIA-INDUCIBLE FACTOR-1 INHIBITORS AND TOLL-LIKE RECEPTOR-3 AGONISTS FOR TREATING SOLID TUMORS” (Università degli Studi di Roma "La Sapienza", priority 2010, dated 2011).
Where two headings read alike, the source gives them in different places. *1 amine or outer side, *2 acyl side, *3 side chain or, on linkers, in order; H or OH if unused. Where a SMILES comes first, the peptide text is derived from it. Bridges are numbered along the chain shown (N, C = ends). Roman numbers before positions name the chains, in order. [ ]: non-standard residue; d: D form. The star is where a group is joined. Actinocin(9to1) = Cc1c2oc3c(C)ccc(C(=O)[*:1])c3nc-2c(C(=O)[*:2])c(N)c1=O; NMeV = CN[C@H](C(=O)O)C(C)C; Cbz = O=C(OCc1ccccc1)*; Sar = CNCC(=O)O

Tested on: HIF-1α
Experiment: Western blot of HIF-1α protein in PC3 cells (whole cell and nuclear extracts)
Format: cell-based, human
Procedure: LNCaP and PC3 prostate cancer cells were purchased from ATCC and were grown in DME medium supplemented with 2 mM L-glutamine, 100 IU/ml penicillin-streptomycin and 10% FCS (Sigma-Aldrich, St Louis, MO). For all the experiments, prostate cancer cell lines were serum starved for 18 h and then stimulated with poly(I:C) (InvivoGen, San Diego) in FCS-free medium. Human Umbilical Vein Endothelial Cells (HUVEC) were maintained in EGM®-2 complete medium (Lonza, Basel, Switzerland). Actinomycin D, cycloheximide and CoCl2 were from Sigma. MG-132 was from Calbiochem-Merk (Damstadt, Germany).
Cell lysates were prepared in cell lysis buffer (Cell Signaling, Danvers, MA). Equal amounts of proteins (40 µg) were subjected to SDS-polyacrylamide gel electrophoresis and transferred onto a nitrocellulose membrane saturated with 5% non-fat dry milk in Tris-buffered saline with 0.1% Tween-20 (T-TBS). Membranes were incubated with primary antibody and subsequently with horseradish peroxidase-conjugated (HRP) secondary antibody for 1 h at room temperature. Membranes were washed with T-TBS and developed using the chemiluminescence system (ECL; Amersham Bioscience, Piscataway, NJ). Antibody anti-HIF-1α was from BD biosciences (San Diego, CA), cleaved caspase-3 (Asp175) from Cell Signalling (Danvers, MA) and anti-β actin from Sigma. Secondary antibodies were HRP-conjugated goat anti-mouse or anti-rabbit (Bio-Rad, Hercules, CA). To perform Western blot of nuclear extracts, cells were washed in ice-cold PBS, scraped and collected in buffer A (10 mM Tris, pH 7.8, 1.5 Mm MgC12, and 10 mM KCl), and kept on ice for 10 min. before Dounce homogenization. Nuclei were then pelleted at 1000 g for 7 min. at 4°C, re-suspended in 150 µl ice-cold lysis buffer and incubated for 30 min. on ice in the presence of proteases inhibitor cocktail (Sigma) then stored at -80°C. Protein concentration was determined by the micro bicinchoninic acid (BCA) method (Pierce, Rockford, IL).
One day after plating (1 x 10^5 cells/ml), cells were transiently transfected with 1 µg of a plasmid encoding 1.3 isoform of hif-1α [6] or relative control plasmid (pcDNA3) or with 1 µg of a plasmid containing an interfering sequence targeting hif-1α (int.HIF-1α) or the relative control (int. scramble) previously described. Cells were transfected for 5 h with lipofectamine LTX/plus (Invitrogen, Carlsbad, CA) according to the manufacturer's protocol. Challenge with poly(I:C) was performed 18 h later.
To obtain stably transfected PC3 cells with non-functional TLR3, cells were transfected with 1 µg TLR3-dominant negative plasmid (TLR3-DN) (pZERO-hTLR3, Invivogen) or with 1 µg plasmid containing only the resistance to puromycin (pPURO), using lipofectamine LTX/plus as described above. 48 h later, the cells were trypsinized, and seeded at different dilutions onto 100-mm plates in complete DMEM supplemented with 2 µg/ml puromycin (Invivogen). After incubation at 37°C for 2 to 3 weeks, individual colonies were isolated using sterile cloning rings, trypsinized and plated onto 12-well plates. The clones obtained were expanded and maintained in DMEM supplemented with 2 µg/ml puromycin.

Compound: Cc1c2oc3c(C)ccc(C(=O)N[C@@H]4C(=O)N[C@H](C(C)C)C(=O)N5CCC[C@H]5C(=O)N(C)CC(=O)N(C)[C@@H](C(C)C)C(=O)O[C@@H]4C)c3nc-2c(C(=O)N[C@@H]2C(=O)N[C@H](C(C)C)C(=O)N3CCC[C@H]3C(=O)N(C)CC(=O)N(C)[C@@H](C(C)C)C(=O)O[C@@H]2C)c(N)c1=O [Act D, actinomycin D] (I: T[dV]P[Sar][NMeV] / II: T[dV]P[Sar][NMeV]; ester I:1-I:C, II:1-II:C; linker I:N-II:N via Actinocin(9to1))
- effect on HIF-1α protein accumulation in cells treated with CoCl2 (PC3 cells, 100 µM CoCl2 3 h, Fig. 2B upper): did not inhibit
- effect on poly(I:C)-dependent HIF-1α protein induction (PC3 cells, poly(I:C) 5 µg/ml about 6 h, inhibitor for 15 min (CHX 100 µg/ml, Act D 2 µg/ml), Fig. 2B upper): completely abolished

Compound: C[C@@H]1C[C@@H]([C@H](O)CC2CC(=O)NC(=O)C2)C(=O)[C@@H](C)C1 [CHX, cycloheximide]
- effect on HIF-1α increase by CoCl2 combined with MG-132: not significantly inhibited
- effect on HIF-1α increase by poly(I:C) in MG-132-treated cells: reverted the increase to the level of MG-132 alone
- effect on HIF-1α protein accumulation in cells treated with CoCl2: did not inhibit
- effect on poly(I:C)-dependent HIF-1α protein induction: completely abolished

Compound: CC(C)C[C@@H](C=O)NC(=O)[C@H](CC(C)C)NC(=O)[C@H](CC(C)C)NC(=O)OCc1ccccc1 [MG-132] (Cbz-Leu-Leu-Leu-aldehyde)
- level of HIF-1α in the absence of poly(I:C) (PC3 cells, 5 µg/ml MG-132, 3 h, Fig. 2B lower): induced an increase
- HIF-1α compared to CoCl2 alone (PC3 cells, CoCl2 combined with MG-132, Fig. 2B lower): greater increment
